Assay [1] addresses T1, rat intestinal α-glucosidase (maltase activity).
T1 construct: gene Mgam; crude native enzyme solution from rat intestinal acetone powder (Sigma-Aldrich); maltose hydrolysis; not purified
Put plainly: maltose hydrolysis, liberated glucose by glucose oxidase. Type of assay: biochemical. Particulars: maltose 3.5 mM stock (0.35 of 0.5 mL); 0.1 M potassium phosphate pH 6.3; 37 °C, 15 min; crude enzyme.

Assay [2] deals with T2, Caco-2 maltase (maltose-hydrolysis activity of α-glucosidase).
T2 construct: gene SI; native enzyme on the apical side of differentiated Caco-2 monolayer
The experiment in a line: maltose hydrolysis on Caco-2 monolayer, liberated glucose by glucose oxidase. Particulars: 28 mM maltose in PBS; 37 °C, 2 h; reversible. Type of assay: cell-based, Homo sapiens.

Broadly, the IC50 is the midpoint of a concentration-inhibition curve. As usually defined, the % inhibition is the drop in the measured response relative to a control, in per cent.

≈ marks a conversion by molar mass, not a printed value.

For `O=C(O)C[C@@H]1C(=O)O[C@H]2[C@@H]3OC(=O)c4cc(O)c(O)c(O)c4-c4c(cc(O)c(O)c4O)C(=O)OC[C@H]2O[C@@H](OC(=O)c2cc(O)c(O)c(O)c2)[C@@H]3OC(=O)c2cc(O)c(O)c3c2[C@H]1[C@H](O)C(=O)O3` [chebulagic acid], the IC50 in assay [1] is 37 µg/mL (≈ 38.8 µM). Besides, the “% inhibition at 0.5 mM/well” value in assay [2] came out at 73%.
